Among the data in the OligoGym collection are target mRNA inhibition values, retold here.

Several values for one entry are separate records, joined by “and”; a condition that tells them apart may be missing. Equal entries are not always repeated. After the bases stand the sugars from the 5' end (letter, count) and the backbone: PS all phosphorothioate, else s phosphorothioate and o phosphodiester by linkage. Methylation of C is not given here. l = locked nucleic acid (LNA); d = 2'-deoxy (DNA)

One series has as its target MYH7. The conditions noted are these: ASO, CC-2580, 5 µM.
Another series addresses ANGPTL2. The conditions noted are these: ASO.

With AAAGGATGTAAGATGCA (sugars l4 d9 l4, PS), the target mRNA inhibition in the series with MYH7 was 88% and 89%.
On to “AGTAGCCTTCTGACCAA (sugars l1 d13 l3, PS)”, for which the target mRNA inhibition was 48.5% with ANGPTL2 (5 µM) and 56.5% with ANGPTL2 (25 µM).
On the same counts, the results for “AGTTGATAGTTTATCTCCT (sugars l2 d15 l2, PS)” are 59.7% and 67.4%.
“ATAGTGGGCAGAGGGGG (sugars l1 d14 l2, PS)”: the target mRNA inhibition was 21.6% in the series with ANGPTL2 (5 µM) and 13.4% in the series with ANGPTL2 (25 µM).
On the same counts, the results for “ATCAATAGGCAGACAGGC (sugars l2 d14 l2, PS)” are 50.1% and 65.4%.
The like results for “ATGGTGGTTATTCTTTGTGA (sugars l1 d17 l2, PS)” were, in that order, 33% and 35.7%.
Regarding “ATTGTGGGTTGGAGGGC (sugars l1 d14 l2, PS)”, the target mRNA inhibition was found to be 30.3% with ANGPTL2 (5 µM) and 18.7% in the series with ANGPTL2 (25 µM).
On the same counts, the results for “ATTTTGAGATTCCCCCAAA (sugars l1 d14 l4, PS)” are 7.37% and -8.2%.
The like results for “CAAAGGCATTTCAGTTCC (sugars l1 d14 l3, PS)” were, in that order, 56.8% and 70.4%.
The like results for “CAGCCAGTAAATGTTCTCCA (sugars l1 d17 l2, PS)” were, in that order, 42.8% and 38%.
For the sequence “CAGCTTGGCGATGATCT (sugars dlddlddddddlddlll, PS)”, the target mRNA inhibition in the series with MYH7 was 50% and 32%.
Regarding “CAGCTTGGCGATGATCT (sugars l2 d8 l1 d2 l4, PS)”, in the series with MYH7, the target mRNA inhibition is 37% and 35%.
Still for that read-out and setting: then “CAGCTTGGCGATGATCT (sugars l2 d8 l1 d3 l3, PS)”, with 48% and 29%; and “CAGCTTGGCGATGATCT (sugars l2 d9 l1 d2 l3, PS)”, with 59% and 54%.
On the same count and under the same terms, in the case of “CAGCTTGGCGATGATCT (sugars l2 d11 l1 d1 l2, PS)” it was 66% and 46%.
Still for that read-out and setting: in the case of “CAGCTTGGCGATGATCT (sugars l3 d9 l1 d2 l2, PS)” it was 64% and 46%; in that of “CAGCTTGGCGATGATCT (sugars lddldddddddldldll, PS)”, 14% and 8%; in that of “CAGCTTGGCGATGATCT (sugars lddlddddddldldlll, PS)”, 20% and 19%.
As for “CAGCTTGGCGATGATCT (sugars lddlddddddlldddll, PS)”, the target mRNA inhibition in the series with MYH7 is -44% and -36%.
Still for that read-out and setting: then “CAGCTTGGCGATGATCT (sugars lddldddllddddddll, PS)”, with 23% and 16%.
Still for that read-out and setting: in the case of “CAGCTTGGCGATGATCT (sugars lddldldddldddddll, PS)” it was 12% and -4%; in that of “CAGCTTGGCGATGATCT (sugars lddlldddddlddddll, PS)”, 31% and 7%; in that of “CAGCTTGGCGATGATCT (sugars ldldddddddldlddll, PS)”, 9% and -10%.
“CAGCTTGGCGATGATCT (sugars ldldddddddlldldll, PS)”: in the series with MYH7, the target mRNA inhibition is 38% and 34%.
The same measure, in the same setting: then “CAGCTTGGCGATGATCT (sugars ldldlldlddddddlll, PS)”, with 30% and 32%; and “CAGCTTGGCGATGATCT (sugars ldllddlddldddddll, PS)”, with 28% and 5%.
The same measure, in the same setting: then “CAGCTTGGCGATGATCT (sugars llddddddddlldldll, PS)”, with 14% and 18%; and “CAGCTTGGCGATGATCT (sugars lldddddddldddldll, PS)”, with 5% and -8%; and “CAGCTTGGCGATGATCT (sugars llddlddlddddddlll, PS)”, with 9% and -16%.
With “CAGCTTGGCGATGATCT (sugars lldlldddddlddddll, PS)”, the target mRNA inhibition with MYH7 was 34% and 16%.
“CAGGCCAACACTAACTC (sugars l1 d12 l4, PS)”: the target mRNA inhibition with ANGPTL2 (5 µM) was 66.9%; in the series with ANGPTL2 (25 µM) it was 82.5%.
On the same counts, the results for “CAGGTCCTTGTACTTGC (sugars l2 d13 l2, PS)” are 49.2% and 62%.
Consider “CATTTTGAGATTCCCCCA (sugars l1 d15 l2, PS)”, for which the target mRNA inhibition with ANGPTL2 (5 µM) amounted to 22.1%; with ANGPTL2 (25 µM) it was 21.1%.
The like results for CCAACACTAACTCGGC (sugars l2 d12 l2, PS) were, in that order, 36% and 54.3%.
On the same counts, the results for “CCACCCATTTAGCCTTC (sugars l1 d14 l2, PS)” are 46.7% and 42.7%.
On the same counts, the results for “CCAGAGCTAATCAGTGG (sugars l2 d13 l2, PS)” are 39.4% and 48.8%.
In the case of “CCATTTTGAGATTCCCCCAA (sugars l3 d15 l2, PS)”, the target mRNA inhibition in the series with ANGPTL2 (5 µM) was determined as 44.4%; in the series with ANGPTL2 (25 µM) it was 43.9%.
On the same counts, the results for “CCCACAATGAGACTGGT (sugars l2 d13 l2, PS)” are 30.2% and 30.4%.
On the same counts, the results for CTAGACATACCATCTA (sugars l3 d10 l3, PS) are 34.9% and 40%.
The like results for “CTAGTGTGCTCTGGAGC (sugars l1 d14 l2, PS)” were, in that order, 36.6% and 65.7%.
